Here are results for 20 compounds from patent US20250312499A1, “KISSPEPTIN RECEPTOR (KISS1R) TARGETED THERAPEUTICS AND USES THEREOF” (priority 2024, published 2025).

Numbered stars: 1 amine (or outer) side, 2 acyl side, 3 side chain; on linkers, the order of the positions; unused ones are H or OH. Square brackets hold non-standard residues; d marks the D form. Peptide text beside a SMILES is read from it. * marks the point of attachment. DOTA = O=C(O)CN1CCN(CC(=O)O)CCN(CC(=O)*)CCN(CC(=O)O)CC1; Gly(N-(3-F-4-Me-benzyl)) = Cc1ccc(CNCC(=O)*)cc1F; X11 = O=C(c1ccc(-c2ccccc2)c(OCCN[*:1])c1)[*:2]; Api(1-amidino) = N=C(N)N1CCC(N)(C(=O)O)CC1; Phe(4-CN) = N#Cc1ccc(C[C@H](N)C(=O)O)cc1; 2Nal = N[C@@H](Cc1ccc2ccccc2c1)C(=O)O; d2Nal = N[C@H](Cc1ccc2ccccc2c1)C(=O)O; 4Pal = N[C@@H](Cc1ccncc1)C(=O)O; d4Pal = N[C@H](Cc1ccncc1)C(=O)O; 4Amb = NCc1ccc(C(=O)O)cc1; Api = NC1(C(=O)O)CCNCC1; Ahx = NCCCCCC(=O)O; azaGly = NNC(=O)O Some results are limits rather than exact numbers.

The experiment deals with human kisspeptin receptor (Homo sapiens (Human), UniProt Q969F8). As to the kind of experiment: Human KISS1R binding assay (membrane competition binding). As to conditions: 90 min at room temperature; competition with 0.2 nM [125I]-metastin (45-54); Flp-In T-Rex 293 kisspeptin membranes; metal complexes nonradioactive Ga, In, Lu; read-out: hKiSSR Binding Ki (90 min). Summed up: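 Radioligand competition: 0.2 nM [125I]-metastin (45-54) displaced by test ligand (usually 0–10,000 nM) over 90 min at room temperature, pH 7.4 buffer with 0.1% BSA. Receptor source is crude membrane (5–10 μg) from tetracycline-induced Flp-In T-Rex 293 cells. Bound label filtered and counted; Ki from non-linear regression.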
Chain of human kisspeptin receptor (Q969F8 whole entry): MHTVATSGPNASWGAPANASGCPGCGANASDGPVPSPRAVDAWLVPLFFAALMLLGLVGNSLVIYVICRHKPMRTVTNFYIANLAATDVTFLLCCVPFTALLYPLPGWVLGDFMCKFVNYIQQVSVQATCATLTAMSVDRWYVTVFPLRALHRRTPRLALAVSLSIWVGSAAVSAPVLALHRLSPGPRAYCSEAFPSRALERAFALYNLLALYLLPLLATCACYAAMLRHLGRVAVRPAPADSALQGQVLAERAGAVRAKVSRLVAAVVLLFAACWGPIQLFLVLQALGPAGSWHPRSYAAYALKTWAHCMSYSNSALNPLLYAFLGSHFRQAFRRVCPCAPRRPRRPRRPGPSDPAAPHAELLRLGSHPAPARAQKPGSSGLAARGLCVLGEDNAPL
A word on the Ki: it is a measure of affinity in units of concentration, obtained from inhibition or displacement. In the case of `CC(C)C[C@H](NC(=O)NNC(=O)[C@H](Cc1ccccc1)NC(=O)[C@@H](NC(=O)[C@H](CC(N)=O)NC(=O)c1ccc(CNC(=O)CN2CCN(CC(=O)O)CCN(CC(=O)O)CCN(CC(=O)O)CC2)cc1)[C@@H](C)O)C(=O)NC1(C(=O)N[C@@H](Cc2ccncc2)C(N)=O)CCN(C(=N)N)CC1` [Compound 272] ({DOTA-4Amb}-NTF[azaGly]L[Api(1-amidino)][4Pal]-NH2), the Ki is less than 10 nM.
In the case of `CC(C)C[C@H](NC(=O)NNC(=O)[C@H](Cc1ccccc1)NC(=O)[C@@H](NC(=O)[C@H](CC(N)=O)NC(=O)[C@H](Cc1ccncc1)NC(=O)[C@@H](Cc1ccc(O)cc1)NC(=O)CN1CCN(CC(=O)O)CCN(CC(=O)O)CCN(CC(=O)O)CC1)[C@@H](C)O)C(=O)NC1(C(=O)N[C@@H](Cc2ccncc2)C(N)=O)CCN(C(=N)N)CC1` [Compound 273] ({DOTA}-[dY][4Pal]NTF[azaGly]L[Api(1-amidino)][4Pal]-NH2) it was 10 to 100 nM; in that of `CC(C)C[C@H](NC(=O)NNC(=O)[C@H](Cc1ccccc1)NC(=O)[C@@H](NC(=O)[C@H](CC(N)=O)NC(=O)[C@H](Cc1ccc2ccccc2c1)NC(=O)[C@@H](Cc1ccc(O)cc1)NC(=O)CCCCCNC(=O)CN1CCN(CC(=O)O)CCN(CC(=O)O)CCN(CC(=O)O)CC1)[C@@H](C)O)C(=O)NC1(C(=O)N[C@@H](Cc2ccncc2)C(N)=O)CCN(C(=N)N)CC1` [Compound 275] ({DOTA-Ahx}-[dY][2Nal]NTF[azaGly]L[Api(1-amidino)][4Pal]-NH2), less than 10 nM.
In the case of `CC(C)C[C@H](NC(=O)NNC(=O)[C@H](Cc1ccccc1)NC(=O)[C@@H](NC(=O)[C@H](CC(N)=O)NC(=O)[C@H](Cc1ccc2ccccc2c1)NC(=O)[C@@H](Cc1ccc(O)cc1)NC(=O)CCCCCNC(=O)CN1CCN(CC(=O)O)CCN(CC(=O)O)CCN(CC(=O)O)CC1)[C@@H](C)O)C(=O)NC1(C(=O)N[C@@H](Cc2ccc(O)cc2)C(N)=O)CCN(C(=N)N)CC1` [Compound 276] ({DOTA-Ahx}-[dY][2Nal]NTF[azaGly]L[Api(1-amidino)]Y-NH2) it was less than 10 nM; in that of `CC(C)C[C@H](NC(=O)NNC(=O)[C@H](Cc1ccccc1)NC(=O)[C@@H](NC(=O)[C@H](CC(N)=O)NC(=O)[C@H](Cc1ccc2ccccc2c1)NC(=O)[C@@H](Cc1ccc(O)cc1)NC(=O)CCCCCNC(=O)CN1CCN(CC(=O)O)CCN(CC(=O)O)CCN(CC(=O)O)CC1)[C@@H](C)O)C(=O)NC1(C(=O)N[C@@H](Cc2ccccc2)C(N)=O)CCN(C(=N)N)CC1` [Compound 277] ({DOTA-Ahx}-[dY][2Nal]NTF[azaGly]L[Api(1-amidino)]F-NH2), less than 10 nM; in that of `CC(C)C[C@H](NC(=O)NNC(=O)[C@H](Cc1ccccc1)NC(=O)[C@@H](NC(=O)[C@H](CC(N)=O)NC(=O)[C@H](Cc1ccc2ccccc2c1)NC(=O)[C@@H](Cc1ccc(O)cc1)NC(=O)CCCCCNC(=O)CN1CCN(CC(=O)O)CCN(CC(=O)O)CCN(CC(=O)O)CC1)[C@@H](C)O)C(=O)NC1(C(=O)N[C@@H](Cc2ccc(C#N)cc2)C(N)=O)CCN(C(=N)N)CC1` [Compound 278] ({DOTA-Ahx}-[dY][2Nal]NTF[azaGly]L[Api(1-amidino)][Phe(4-CN)]-NH2), less than 10 nM.
Regarding `Cc1ccc(CNCC(=O)N2CCC(NC(=O)c3ccc(-c4ccccc4)c(OCCNC(=O)[C@H](Cc4ccccc4)NC(=O)[C@@H](NC(=O)[C@H](CC(N)=O)NC(=O)[C@@H](Cc4c[nH]c5ccccc45)NC(=O)[C@@H](Cc4ccc(O)cc4)NC(=O)CCCCCNC(=O)CN4CCN(CC(=O)O)CCN(CC(=O)O)CCN(CC(=O)O)CC4)[C@@H](C)O)c3)(C(=O)N[C@@H](Cc3c[nH]c4ccccc34)C(N)=O)CC2)cc1F` [Compound 279] ({DOTA-Ahx}-[dY][dW]NTF[X11][Api](Gly(N-(3-F-4-Me-benzyl)))W-NH2), the inhibition constant (Ki) was less than 10 nM.
In the case of `Cc1ccc(CNCC(=O)N2CCC(NC(=O)c3ccc(-c4ccccc4)c(OCCNNC(=O)[C@H](Cc4ccccc4)NC(=O)CCCCCNC(=O)CN4CCN(CC(=O)O)CCN(CC(=O)O)CCN(CC(=O)O)CC4)c3)(C(=O)N[C@@H](Cc3c[nH]c4ccccc34)C(N)=O)CC2)cc1F` [Compound 280] it was greater than 100 nM.
For the compound `Cc1ccc(CNCC(=O)N2CCC(NC(=O)[C@H](CC(C)C)NC(=O)NNC(=O)[C@H](Cc3ccccc3)NC(=O)[C@@H](NC(=O)[C@H](CC(N)=O)NC(=O)[C@@H](Cc3ccncc3)NC(=O)[C@@H](Cc3ccc(O)cc3)NC(=O)CN3CCN(CC(=O)O)CCN(CC(=O)O)CCN(CC(=O)O)CC3)[C@@H](C)O)(C(=O)N[C@@H](Cc3ccncc3)C(N)=O)CC2)cc1F` [Compound 281] ({DOTA}-[dY][d4Pal]NTF[azaGly]L[Api](Gly(N-(3-F-4-Me-benzyl)))[4Pal]-NH2), the Ki was less than 10 nM.
In the case of `Cc1ccc(CNCC(=O)N2CCC(NC(=O)c3cc(OCCNC(=O)[C@H](Cc4ccccc4)NC(=O)CCCCCNC(=O)CN4CCN(CC(=O)O)CCN(CC(=O)O)CCN(CC(=O)O)CC4)c(-c4ccccc4)cc3C)(C(=O)N[C@@H](Cc3c[nH]c4ccccc34)C(N)=O)CC2)cc1F` [Compound 282] it was greater than 100 nM.
Take `Cc1ccc(CNCC(=O)N2CCC(NC(=O)c3ccc(-c4ccccc4OCCNC(=O)[C@H](Cc4ccccc4)NC(=O)CCCCCNC(=O)CN4CCN(CC(=O)O)CCN(CC(=O)O)CCN(CC(=O)O)CC4)cc3)(C(=O)N[C@@H](Cc3c[nH]c4ccccc34)C(N)=O)CC2)cc1F` [Compound 283]: the Ki was in the range of 10 to 100 nM.
With `CCc1cc(-c2ccccc2OCCNC(=O)[C@H](Cc2ccccc2)NC(=O)CCCCCNC(=O)CN2CCN(CC(=O)O)CCN(CC(=O)O)CCN(CC(=O)O)CC2)ccc1C(=O)NC1(C(=O)N[C@@H](Cc2c[nH]c3ccccc23)C(N)=O)CCN(C(=O)CNCc2ccc(C)c(F)c2)CC1` [Compound 284], the Ki was 10 to 100 nM.
As for `Cc1ccc(CNCC(=O)N2CCC(NC(=O)[C@H](CC(C)C)NC(=O)NNC(=O)[C@H](Cc3ccccc3)NC(=O)CCCCCNC(=O)[C@H](Cc3ccc4ccccc4c3)NC(=O)[C@@H](Cc3ccc(O)cc3)NC(=O)CN3CCN(CC(=O)O)CCN(CC(=O)O)CCN(CC(=O)O)CC3)(C(=O)N[C@@H](Cc3c[nH]c4ccccc34)C(N)=O)CC2)cc1F` [Compound 285] ({DOTA}-[dY][2Nal][Ahx]F[azaGly]L[Api](Gly(N-(3-F-4-Me-benzyl)))W-NH2), the inhibitory constant (Ki) is less than 10 nM.
On to `Cc1ccc(CNCC(=O)N2CCC(NC(=O)[C@H](CC(C)C)NC(=O)NNC(=O)[C@H](Cc3ccccc3)NC(=O)CCCCCNC(=O)[C@H](Cc3ccc4ccccc4c3)NC(=O)[C@@H](Cc3ccc(O)cc3)NC(=O)CN3CCN(CC(=O)O)CCN(CC(=O)O)CCN(CC(=O)O)CC3)(C(=O)N[C@@H](Cc3ccncc3)C(N)=O)CC2)cc1F` [Compound 286] ({DOTA}-[dY][2Nal][Ahx]F[azaGly]L[Api](Gly(N-(3-F-4-Me-benzyl)))[4Pal]-NH2), for which the inhibition constant (Ki) was less than 10 nM.
In the case of `CC(C)C[C@H](NC(=O)NNC(=O)[C@H](Cc1ccccc1)NC(=O)CCCCCNC(=O)[C@H](Cc1ccc2ccccc2c1)NC(=O)[C@@H](Cc1ccc(O)cc1)NC(=O)CN1CCN(CC(=O)O)CCN(CC(=O)O)CCN(CC(=O)O)CC1)C(=O)NC1(C(=O)N[C@@H](Cc2c[nH]c3ccccc23)C(N)=O)CCN(C(=N)N)CC1` [Compound 287] ({DOTA}-[dY][2Nal][Ahx]F[azaGly]L[Api(1-amidino)]W-NH2) it was 10 to 100 nM.
Consider `CC(C)C[C@H](NC(=O)NNC(=O)[C@H](Cc1ccccc1)NC(=O)c1ccc(CNC(=O)[C@H](Cc2ccc3ccccc3c2)NC(=O)[C@@H](Cc2ccc(O)cc2)NC(=O)CN2CCN(CC(=O)O)CCN(CC(=O)O)CCN(CC(=O)O)CC2)cc1)C(=O)NC1(C(=O)N[C@@H](Cc2ccccc2)C(N)=O)CCN(C(=N)N)CC1` [Compound 288] ({DOTA}-[dY][2Nal][4Amb]F[azaGly]L[Api(1-amidino)]F-NH2), for which the inhibition constant (Ki) was less than 10 nM.
In the case of `CC(C)C[C@H](NC(=O)NNC(=O)[C@H](Cc1ccccc1)NC(=O)CCCCCNC(=O)[C@H](Cc1ccc2ccccc2c1)NC(=O)[C@@H](Cc1ccc(O)cc1)NC(=O)CN1CCN(CC(=O)O)CCN(CC(=O)O)CCN(CC(=O)O)CC1)C(=O)NC1(C(=O)N[C@@H](Cc2ccccc2)C(N)=O)CCN(C(=N)N)CC1` [Compound 289] ({DOTA}-[dY][2Nal][Ahx]F[azaGly]L[Api(1-amidino)]F-NH2) it was less than 10 nM; in that of `Cc1ccc(CNCC(=O)N2CCC(NC(=O)[C@H](CC(C)C)NC(=O)NNC(=O)[C@H](Cc3ccccc3)NC(=O)[C@@H](NC(=O)[C@H](CC(N)=O)NC(=O)[C@@H](Cc3c[nH]c4ccccc34)NC(=O)CCCCCNC(=O)CN3CCN(CC(=O)O)CCN(CC(=O)O)CCN(CC(=O)O)CC3)[C@@H](C)O)(C(=O)N[C@@H](Cc3ccncc3)C(N)=O)CC2)cc1F` [Compound 290] ({DOTA-Ahx}-[dW]NTF[azaGly]L[Api](Gly(N-(3-F-4-Me-benzyl)))[4Pal]-NH2), less than 10 nM.
With `Cc1ccc(CNCC(=O)N2CCC(NC(=O)[C@H](CC(C)C)NC(=O)NNC(=O)[C@H](Cc3ccccc3)NC(=O)[C@@H](NC(=O)[C@H](CC(N)=O)NC(=O)[C@@H](Cc3ccc(O)cc3)NC(=O)CCCCCNC(=O)CN3CCN(CC(=O)O)CCN(CC(=O)O)CCN(CC(=O)O)CC3)[C@@H](C)O)(C(=O)N[C@@H](Cc3ccncc3)C(N)=O)CC2)cc1F` [Compound 291] ({DOTA-Ahx}-[dY]NTF[azaGly]L[Api](Gly(N-(3-F-4-Me-benzyl)))[4Pal]-NH2), the Ki was less than 10 nM.
`Cc1ccc(CNCC(=O)N2CCC(NC(=O)[C@H](CC(C)C)NC(=O)NNC(=O)[C@H](Cc3ccccc3)NC(=O)[C@@H](NC(=O)[C@H](CC(N)=O)NC(=O)[C@@H](Cc3ccc4ccccc4c3)NC(=O)CCCCCNC(=O)CN3CCN(CC(=O)O)CCN(CC(=O)O)CCN(CC(=O)O)CC3)[C@@H](C)O)(C(=O)N[C@@H](Cc3ccncc3)C(N)=O)CC2)cc1F` [Compound 292] ({DOTA-Ahx}-[d2Nal]NTF[azaGly]L[Api](Gly(N-(3-F-4-Me-benzyl)))[4Pal]-NH2): the Ki was less than 10 nM.
